B1: bovine liver catalase: bovine liver catalase enzyme used as reference (protein, UniProt P00432 2-527, looked up)
Catalase: ADNRDPASDQMKHWKEQRAAQKPDVLTTGGGNPVGDKLNSLTVGPRGPLLVQDVVFTDEMAHFDRERIPERVVHAKGAGAFGYFEVTHDITRYSKAKVFEHIGKRTPIAVRFSTVAGESGSADTVRDPRGFAVKFYTEDGNWDLVGNNTPIFFIRDALLFPSFIHSQKRNPQTHLKDPDMVWDFWSLRPESLHQVSFLFSDRGIPDGHRHMNGYGSHTFKLVNANGEAVYCKFHYKTDQGIKNLSVEDAARLAHEDPDYGLRDLFNAIATGNYPSWTLYIQVMTFSEAEIFPFNPFDLTKVWPHGDYPLIPVGKLVLNRNPVNYFAEVEQLAFDPSNMPPGIEPSPDKMLQGRLFAYPDTHRHRLGPNYLQIPVNCPYRARVANYQRDGPMCMMDNQGGAPNYYPNSFSAPEHQPSALEHRTHFSGDVQRFNSANDDNVTQVRTFYLKVLNEEQRKRLCENIAGHLKDAQLFIQKKAVKNFSDVHPEYGSRIQALLDKYNEEKPKNAVHTYVQHGSHLSAREKANL

Experiments:
[1] = test system: Human dermal fibroblasts (HF cells); assay: Cell protection assay, glucose/glucose oxidase toxicity, XTT; format: cell-based
Protocol: Human dermal fibroblasts (HF cells) were obtained from the American type tissue Culture Collection at passage 1 and cultured and propagated in a medium (HF medium) consisting of Dulbecco's Modified Eagle's Medium with 4.5 g/l D-glucose, 10% calf serum 4 mM glutamine, 50 units/ml penicillin, and 50 μg/ml streptomycin in a 37° C. humidified incubator equilibrated with 5% CO2. Cells were used at passages 5 or 6 for experiments. For cell protection assays, HF cells were seeded at a density of about 15,000 cells per cm2 onto 96-well culture plates and allowed to grow to confluence. To assess protection tert-butylhydroperoxide (t-BHP) toxicity, confluent cell layers were first treated with the indicated concentrations of test compounds dissolved in HF medium for 18 hr. The medium was then replaced with fresh medium containing test compounds and 0.5 mM tert-butylhydroperoxide (t-BHP) and cells were incubated for another 18 hr. The medium was then removed and replaced with fresh HF medium (100 μl per well) without test compounds or t-BHP. Fifty μl of XTT reagent (Boeringer Mannheim, Inc.), prepared as described by the manufacturer, was then added to each well and the plates returned to the incubator. After 2 hr., the absorbance at 490 nm was measured in a BioRad (Richmond, Calif.) Model 3550 plate-reader, using a reference wavelength of 655 nm. Control cells that had not been exposed to test compounds or toxic agents were included among the samples treated with XTT reagent. Absorbance measurements for blank wells, containing HF medium and XTT reagent but no cells, were also determined. To analyze protection from glucose/glucose oxidase toxicity, confluent cell layers were incubated with HF medium containing glucose oxidase (0.019 units/ml) along with test compounds, as indicated, for 18 hr in the tissue culture incubator. Fresh HF medium was then added and cell viability assessed using the XTT reagent as described above. For both these models, concentrations of toxic agents were selected that were reproducibly completely lethal. Cytotoxicity assessments were routinely confirmed by visual inspection of the cell layers prior to addition of the XTT reagent.
(§1) Catalase and peroxidase activities were assayed as described in Example 2. Catalase assays contained 10 μM salen-manganese complex and 10 mM hydrogen peroxide. Peroxidase assays contained 10 μM salen-manganese complex and 0.2 mM hydrogen peroxide. Glucose-glucose oxidase toxicity assays were performed using human dermal fibroblasts as described in Example 2.

[2] = Peroxidase activity, H2O2-dependent oxidation of ABTS (Example 2); format: biochemical; conditions: for Peroxidase: relative to C7 (C7 = 100)
Protocol: Peroxidase activity was assayed by monitoring the hydrogen peroxide-dependent oxidation of 2,2′-azino-bis(3-ethylbenzthiazoline-6) sulfonic acid (ABTS) spectrophotometrically. Standard assay mixtures consisted of 50 mM sodium phosphate, pH 8.1, 0.9% sodium chloride, 0.5 mM ABTS, and H2O2 and salen manganese complex as indicated. Where indicated, 50 mM sodium phosphate buffers of pH 6.0 or pH 7.1 were substituted. Assays were conducted at 27±0.2° C. ABTS oxidation was monitored at 740 or 500 nm to eliminate interference by the salen manganese complexes, many of which absorb in the vicinity of the λmax of oxidized ABTS, and to avoid absorbance values that exceeded the linear range of the spectrophotometer. The amount of oxidized ABTS was estimated using an Δε740 of 20,300 M^−1cm^−1 or an Δε500 of 3400 M^−1cm^−1 calculated based upon the published molar extinction coefficient oat 405 nm (36,800).
as §1

[3] = SOD activity, xanthine/xanthine oxidase with cytochrome C as acceptor (Example 2); format: biochemical; conditions: for SOD: relative to C7 (C7 = 100)
Protocol: Superoxide dismutase (SOD) activity was assayed by following the inhibition of the reduction of an electron acceptor molecule in the presence of the free-radical generating system xanthine/xanthine oxidase (McCord et al. (1973) Superoxide and Superoxide Dismutase in “Oxidases and Related Redox Systems, vol. I, King et al. eds., University Park press, Baltimore, pp. 51-76). The assay mixture consisted of 50 mM sodium phosphate, pH 7.8, 120 μM xanthine, 0.2 units/ml xanthine oxidase, with acceptor molecule and salen manganese compound, as indicated. Assays were conducted at 27±0.2° C. using a water-jacketed cell holder in a Beckman DU7400 spectrophotometer. In most cases, oxidized cytochrome c, at 0.13 mg/ml, was employed as acceptor and its reduction was monitored spectrophotometrically at 550 nm. In some experiments, nitroblue tetrazolium (NBT), at 80 μM, was substituted for cytochrome c as the acceptor. NBT reduction was also monitored at 550 nm. An estimated extinction coefficient for NBT reduction, 20,800 M^−1cm^−1, determined empirically by exhaustive reduction of NBT in the reaction mixture described above, was employed where indicated. […] Conversion of xanthine to urate was calculated using ε290's of […] for urate and 4050 M^−1cm^−1 for xanthine. […] For each compound, at least four different concentrations were tested in duplicate.

[4] = Catalase activity, conversion of H2O2 to oxygen, polarographic oxygen electrode (Example 2); format: biochemical; conditions: for Catalase endpt. / Catalase rate: relative to C7 (C7 = 100)
Protocol: Catalase activity was assayed by monitoring the conversion of H2O2 to oxygen using a Clark-type polarographic oxygen electrode. The apparatus consisted of a Mini Clark Style electrode, a 600 μl Oxygen Uptake Chamber, and a Chemical Microsensor system, all obtained from Diamond General Corporation (Ann Arbor, Mich.). The electrode was calibrated by immersion in nitrogen- or air-equilibrated buffers using a Dual Chamber Calibration Cell (Diamond General,. Corp.). Catalase reaction mixtures consisted of 50 mM sodium phosphate, pH 8.1, 0.9% sodium chloride, and salen manganese complex and H2O2 at the indicated concentrations. The temperature of the water-jacketed reaction chamber, as well as the calibration buffers, was maintained at 25±0.1° C. Data were collected at 1 sec intervals and stored-on a MacIntosh II computer using data acquisition hardware and software by Strawberry Tree, Inc. (Sunnyvale, Calif.). Dissolved oxygen concentrations were calculated as described previously (Del Rio et al. (1977) Anal. Biochem. 80: 409) based on a value of 2.5×10^−4 M oxygen for air-saturated buffer at 25° C. Linearity of the dissolved oxygen measurements within the experimental range was continued by determining the amount of oxygen generated from known quantities of H2O2 during exhaustive treatment with bovine liver catalase. Stock solutions of H2O2 were prepared by diluting a commercial 30% H2O2 solution in water and the H2O2 concentrations in these stocks were determined by absorbance at 240 nm, using a molar extinction coefficient of 44 (Stadtman, E R. et al. (1990) Proc. Natl. Acad. Sci. USA 87: 384). […] In the absence of salen manganese complex, H2O2 alone typically produced an early, relatively slow increase in signal. The slope of this increased signal was not proportional to H2O2 concentration (for example in one experiment, 1 and 10 Mm H2O2 yielded apparent rates of 12 and 14 μM oxygen per min, respectively) and may be due to an electrode artifact. […] Where presented, initial rates were calculated by determining the slope of the linear portion of time dependent plots of oxygen generation, usually comprising the first five seconds of the reaction. Unless otherwise indicated, these were corrected by subtracting the rate obtained with H2O2 alone. Where presented, endpoint oxygen generated was calculated from time-dependent plots, such as those shown in FIG. 14, as the difference between the baseline oxygen concentration immediately prior to substrate addition and the maximal oxygen concentration achieved during the course of the reaction. All reactions subjected to these calculations were run for a sufficient time to ensure that oxygen generation had ceased.
as §1

[5] = 29 units/ml bovine liver catalase added, 10 mM H2O2

| Molecule | Peroxidase [2] | SOD [3] | Catalase endpt. [4] | Catalase rate [4] | also measured |
| --- | --- | --- | --- | --- | --- |
| COc1ccc2c(c1)C=NCCN=Cc1cc(OC)ccc1[O][Mn]([O]C(C)=O)[O]2 [Compound C38] | 129 | 100 |  |  | protection against glucose and glucose oxidase ([1]; 80 μM, glucose oxidase 0.019 units/ml): highly protective; Peroxidase rate ([2]; 10 μM salen manganese complex, 0.2 mM H2O2): 19.8 ± 0.4 μM ABTS oxidized/min |
| COc1cc2c(c(OC)c1)[O][Mn]([O]C(C)=O)[O]c1c(cc(OC)cc1OC)C=NCCN=C2 [Compound C42] | 171 | 130 | 379 | 231 |  |
| CC(=O)[O][Mn]1[O]c2ccccc2C=Nc2cccnc2N=Cc2ccccc2[O]1 [Compound C43] | 71 | 57 | 494 | 446 |  |
| COc1cccc2c1[O][Mn]([O]C(C)=O)[O]c1c(cccc1OC)C=Nc1ncccc1N=C2 [Compound C45] | 24 | 83 | 674 | 357 |  |
| COc1cccc2c1[O][Mn]([O]C(C)=O)[O]c1c(cccc1OC)C=Nc1ccccc1N=C2 [Compound C48] | 88 | 91 | 741 | 485 |  |
| COc1cccc2c1[O][Mn]([Cl])[O]c1c(cccc1OC)C=NC1CCCCC1N=C2 (stereo not drawn) [Compound C49] | 138 | 88 | 285 | 123 |  |
| [O]=[V]1[O]c2ccccc2C=NCCN=Cc2ccccc2[O]1 [Compound C53] | 0 | Noncatalytic | 0 | 0 | SOD activity (in words) [3]: noncatalytic SOD activity |
| O=[N+]([O-])[Mn]1[O]c2ccccc2C=NCCN=Cc2ccccc2[O]1 [Compound C56] | 107 | 200 |  |  |  |
| C1=NCCN=Cc2ccccc2[O][Zn][O]c2ccccc21 [Compound C60] | 0 | 0 |  |  |  |
| C1=NCCN=Cc2ccccc2[O][Cu][O]c2ccccc21 [Compound C63] | 0 | 0 |  |  |  |
| CCOc1cccc2c1[O][Mn]([Cl])[O]c1c(cccc1OCC)C=NCCN=C2 [Compound C67] | 134 | 94 | 256 | 159 |  |
| CCOc1cccc2c1[O][Mn]([O]C(C)=O)[O]c1c(cccc1OCC)C=NCCN=C2 [Compound C68] | 162 | 88 | 326 | 196 |  |
| CC(=O)[O][Mn]1[O]c2ccccc2C(C)=NCCN=C(C)c2ccccc2[O]1 [Compound C85] | 0 | 38 | 19 | 31 |  |
| B1 |  |  |  |  | protection against glucose and glucose oxidase ([1]; 290 units/ml): full protection; protection against glucose and glucose oxidase ([1]; ten-fold lower dose than 290 units/ml): only partially protective; peroxidase activity toward ABTS ([2]; 19 units/ml, pH 6.0, 7.1, 8.1): no peroxidase activity; reduction of initial rate of ABTS oxidation by C7 [2, 5]: 55%; total ABTS oxidized by C7 [2, 5]: 18 µM; effect on rate of cytochrome C reduction by xanthine oxidase ([3]; 29 units/ml): did not affect; rate of oxygen production ([4]; 19 units/ml, 2.3 mM H2O2): ~0.33 mM/min |

Source: US7582786B2, “Synthetic catalytic free radical scavengers useful as antioxidants for prevention and therapy of disease” (Eukarion Inc., priority 1996, dated 2009)
